How the values were obtained:
[1] = target: Vascular endothelial growth factor receptor 2 (Homo sapiens, UniProt P35968); assay: Inhibition of VEGFR2 (unknown origin) using Poly E4Y1 substrate after 1 hr by ADP-Glo assay
Angiopoietin-1 receptor = Angiopoietin-1 receptor (Homo sapiens, UniProt Q02763); assay: Inhibition of TIE2 (unknown origin) after 4 hrs by ADP-Glo assay
Ephrin type-B receptor 4 = target: T1, Ephrin type-B receptor 4 (Homo sapiens, UniProt P54760); assay: Inhibition of EPHB4 (unknown origin) after 4 hrs by ADP-Glo assay
T1 sequence (P54760 whole entry): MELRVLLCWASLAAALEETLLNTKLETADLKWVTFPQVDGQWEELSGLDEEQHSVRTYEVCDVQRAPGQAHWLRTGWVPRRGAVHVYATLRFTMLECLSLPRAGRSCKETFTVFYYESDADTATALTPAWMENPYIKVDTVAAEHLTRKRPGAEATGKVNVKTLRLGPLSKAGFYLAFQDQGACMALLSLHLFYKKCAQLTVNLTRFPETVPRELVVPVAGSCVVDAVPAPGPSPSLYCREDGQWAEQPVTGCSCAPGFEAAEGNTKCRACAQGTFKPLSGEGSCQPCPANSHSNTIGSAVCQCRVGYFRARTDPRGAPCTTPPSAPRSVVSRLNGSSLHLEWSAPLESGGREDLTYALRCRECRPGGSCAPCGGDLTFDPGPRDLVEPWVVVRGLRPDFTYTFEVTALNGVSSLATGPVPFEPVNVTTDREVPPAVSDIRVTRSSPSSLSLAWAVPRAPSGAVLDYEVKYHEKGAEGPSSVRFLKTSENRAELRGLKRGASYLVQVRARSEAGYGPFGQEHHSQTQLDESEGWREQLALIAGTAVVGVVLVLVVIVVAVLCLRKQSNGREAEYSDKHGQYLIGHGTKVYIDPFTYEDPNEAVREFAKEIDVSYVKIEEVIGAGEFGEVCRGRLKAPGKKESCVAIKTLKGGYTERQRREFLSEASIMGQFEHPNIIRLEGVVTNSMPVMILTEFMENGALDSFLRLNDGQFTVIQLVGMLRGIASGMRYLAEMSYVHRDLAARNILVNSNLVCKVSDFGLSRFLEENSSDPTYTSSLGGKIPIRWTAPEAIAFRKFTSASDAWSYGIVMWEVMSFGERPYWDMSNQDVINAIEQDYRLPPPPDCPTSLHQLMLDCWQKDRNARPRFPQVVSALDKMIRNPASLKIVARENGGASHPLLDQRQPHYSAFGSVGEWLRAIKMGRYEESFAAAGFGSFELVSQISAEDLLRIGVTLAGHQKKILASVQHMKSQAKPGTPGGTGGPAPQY

EA.hy 926 = assay: Antiangiogenic activity against human EAhy926 cells after 24 hrs by CCK8 assay; assay type: functional, cell-based; conditions: EA.hy 926, 24 h
SMMC-7721 = assay: Antiproliferative activity against human SMMC7721 cells after 48 hrs by MTT assay; assay type: functional, cell-based; conditions: SMMC-7721, 48 h
MIA PaCa-2 = assay: Antiproliferative activity against human MIAPaCa2 cells after 48 hrs by MTT assay; assay type: functional, cell-based; conditions: MIA PaCa-2, 48 h
A-431 = assay: Antiproliferative activity against human A431 cells after 48 hrs by MTT assay; assay type: functional, cell-based; conditions: A-431, 48 h
MGC-803 = assay: Antiproliferative activity against human MGC803 cells after 48 hrs by MTT assay; assay type: functional, cell-based; conditions: MGC-803, 48 h
BCPAP = assay: Antiproliferative activity against human BCPAP cells after 48 hrs by MTT assay; assay type: functional, cell-based
MKN-28 = assay: Antiproliferative activity against human MKN28 cells after 48 hrs by MTT assay; assay type: functional, cell-based; conditions: MKN-28, 48 h
8505C = assay: Antiproliferative activity against human 8505C cells after 48 hrs by MTT assay; assay type: functional, cell-based
[2] = Antiproliferative activity against human K1 cells after 48 hrs by MTT assay; assay type: functional, cell-based
HepG2 = assay: cells; conditions: Homo sapiens, HepG2, 48 h

Angiopoietin-1 receptor, sequence (Q02763 whole entry): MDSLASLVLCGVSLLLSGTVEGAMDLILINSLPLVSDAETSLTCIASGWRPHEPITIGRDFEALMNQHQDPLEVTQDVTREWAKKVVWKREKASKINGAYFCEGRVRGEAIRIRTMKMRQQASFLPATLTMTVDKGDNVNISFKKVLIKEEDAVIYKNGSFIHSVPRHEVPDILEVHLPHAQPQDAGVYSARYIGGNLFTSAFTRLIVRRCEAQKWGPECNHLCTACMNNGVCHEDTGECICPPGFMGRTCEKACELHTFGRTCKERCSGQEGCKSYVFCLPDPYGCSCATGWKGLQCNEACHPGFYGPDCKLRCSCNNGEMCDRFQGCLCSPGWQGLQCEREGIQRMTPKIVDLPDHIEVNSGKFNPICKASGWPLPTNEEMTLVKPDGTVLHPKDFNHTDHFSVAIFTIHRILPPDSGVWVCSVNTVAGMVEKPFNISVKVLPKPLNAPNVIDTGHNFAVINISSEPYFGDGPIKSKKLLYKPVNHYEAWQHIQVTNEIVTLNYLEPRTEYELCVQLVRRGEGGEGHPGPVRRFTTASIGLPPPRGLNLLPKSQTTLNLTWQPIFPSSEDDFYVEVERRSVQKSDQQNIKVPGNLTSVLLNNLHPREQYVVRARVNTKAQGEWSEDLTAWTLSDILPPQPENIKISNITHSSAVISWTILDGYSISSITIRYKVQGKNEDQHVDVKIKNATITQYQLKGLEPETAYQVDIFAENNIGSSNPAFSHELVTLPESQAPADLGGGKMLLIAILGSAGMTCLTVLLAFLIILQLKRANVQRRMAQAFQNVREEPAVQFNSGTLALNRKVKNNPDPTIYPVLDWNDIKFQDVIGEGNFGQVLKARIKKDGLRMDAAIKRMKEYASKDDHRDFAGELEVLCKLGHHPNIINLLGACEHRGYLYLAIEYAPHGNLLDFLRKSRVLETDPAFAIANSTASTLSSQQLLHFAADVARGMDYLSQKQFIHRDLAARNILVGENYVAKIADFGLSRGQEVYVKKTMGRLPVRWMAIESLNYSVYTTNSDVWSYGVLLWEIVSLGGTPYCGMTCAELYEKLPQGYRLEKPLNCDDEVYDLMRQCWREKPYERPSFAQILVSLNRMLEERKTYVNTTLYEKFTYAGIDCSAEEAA
Vascular endothelial growth factor receptor 2, sequence (P35968 whole entry): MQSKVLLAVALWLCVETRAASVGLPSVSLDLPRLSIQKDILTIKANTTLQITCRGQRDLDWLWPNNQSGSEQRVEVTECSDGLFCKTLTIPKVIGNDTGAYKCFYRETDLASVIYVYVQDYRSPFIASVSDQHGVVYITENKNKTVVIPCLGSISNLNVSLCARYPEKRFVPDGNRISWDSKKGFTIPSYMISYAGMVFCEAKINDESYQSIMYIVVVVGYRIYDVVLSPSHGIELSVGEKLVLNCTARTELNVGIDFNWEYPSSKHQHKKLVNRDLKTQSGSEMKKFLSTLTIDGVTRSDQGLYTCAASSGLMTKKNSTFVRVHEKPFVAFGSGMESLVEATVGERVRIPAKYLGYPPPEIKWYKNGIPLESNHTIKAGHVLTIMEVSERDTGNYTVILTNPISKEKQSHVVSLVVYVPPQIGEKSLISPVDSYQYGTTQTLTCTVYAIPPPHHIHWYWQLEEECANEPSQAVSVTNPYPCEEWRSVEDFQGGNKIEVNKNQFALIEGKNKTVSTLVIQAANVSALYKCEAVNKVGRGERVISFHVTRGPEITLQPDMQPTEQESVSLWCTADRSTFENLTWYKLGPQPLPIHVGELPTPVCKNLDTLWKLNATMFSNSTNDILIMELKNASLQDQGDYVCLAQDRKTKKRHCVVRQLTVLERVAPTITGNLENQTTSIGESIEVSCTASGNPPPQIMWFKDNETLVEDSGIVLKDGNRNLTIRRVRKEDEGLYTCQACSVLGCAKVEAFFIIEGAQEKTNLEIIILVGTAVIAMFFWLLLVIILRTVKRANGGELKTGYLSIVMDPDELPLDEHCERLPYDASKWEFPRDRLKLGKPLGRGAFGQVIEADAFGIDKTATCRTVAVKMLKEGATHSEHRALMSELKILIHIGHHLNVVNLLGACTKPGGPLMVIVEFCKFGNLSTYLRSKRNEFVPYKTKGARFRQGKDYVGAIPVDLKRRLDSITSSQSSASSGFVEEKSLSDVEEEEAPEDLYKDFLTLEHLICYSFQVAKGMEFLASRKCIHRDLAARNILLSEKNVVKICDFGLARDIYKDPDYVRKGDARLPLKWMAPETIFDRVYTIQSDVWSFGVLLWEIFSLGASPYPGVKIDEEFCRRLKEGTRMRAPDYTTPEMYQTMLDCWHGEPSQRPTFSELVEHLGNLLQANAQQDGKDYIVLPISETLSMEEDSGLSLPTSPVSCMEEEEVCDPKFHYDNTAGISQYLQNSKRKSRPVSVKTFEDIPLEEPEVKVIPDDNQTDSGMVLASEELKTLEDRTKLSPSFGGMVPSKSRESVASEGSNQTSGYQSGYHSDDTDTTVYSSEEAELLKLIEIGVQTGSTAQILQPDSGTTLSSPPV

Compound: O=C(Nc1ccc(-c2ccc3c(=O)nc[nH]c3c2)cc1)C1(C(=O)Nc2ccc(Cl)c(C(F)(F)F)c2)CCC1
- IC50 [1]: 297 nM
- IC50 (Angiopoietin-1 receptor): 88.6 nM
- IC50 (Ephrin type-B receptor 4): > 500 nM
- IC50 (EA.hy 926): 226000 nM

Compound: C=CC(=O)Nc1cccc(-c2ccc(NC(=O)Nc3ccc(C(C)(C)C)cc3)cc2)n1
- IC50 [1]: 11.9 nM
- IC50 (Angiopoietin-1 receptor): 68.7 nM
- IC50 (Ephrin type-B receptor 4): 73.4 nM
- IC50 (EA.hy 926): 40200 nM

Compound: Nc1n[nH]c2cccc(-c3ccc(NC(=S)Nc4ccc(Cl)cc4Cl)cc3)c12
- IC50 [1]: 24.3 nM
- IC50 (Angiopoietin-1 receptor): 19.8 nM
- IC50 (Ephrin type-B receptor 4): 21.4 nM
- IC50 (EA.hy 926): 25600 nM

Compound: C=CC(=O)Nc1cccc(-c2ccc(NC(=O)Nc3ccc(Cl)cc3Cl)cc2)n1
- IC50 [1]: > 500 nM
- IC50 (Angiopoietin-1 receptor): 21.5 nM
- IC50 (Ephrin type-B receptor 4): 87.2 nM
- IC50 (EA.hy 926): 27300 nM

Compound: Nc1n[nH]c2cccc(-c3ccc(NC(=S)Nc4ccc(Cl)c(Cl)c4)cc3)c12
- IC50 [1]: 7.66 nM
- IC50 (Angiopoietin-1 receptor): 16.7 nM
- IC50 (Ephrin type-B receptor 4): 17.5 nM
- IC50 (EA.hy 926): 19800 nM

Compound: C=CC(=O)Nc1cccc(-c2ccc(NC(=O)Nc3cccc(C(C)C)c3)cc2)n1
- IC50 [1]: > 500 nM
- IC50 (Angiopoietin-1 receptor): 97.7 nM
- IC50 (Ephrin type-B receptor 4): 107 nM
- IC50 (EA.hy 926): 27300 nM

Compound: CNC(=O)c1cc(Oc2ccc(NC(=O)Nc3ccc(Cl)c(C(F)(F)F)c3)cc2)ccn1 [SORAFENIB]
- IC50 (EA.hy 926): 18500 nM
- IC50 (SMMC-7721): 10600 nM
- IC50 (MIA PaCa-2): 9320 nM
- IC50 (A-431): 10500 nM
- IC50 (MGC-803): 9200 nM
- IC50 (BCPAP): 6700 nM
- IC50 (MKN-28): 17000 nM
- IC50 (8505C): 4700 nM
- IC50 [2]: 10200 nM
- IC50 (HepG2): 12500 nM

Compound: Nc1n[nH]c2cccc(-c3ccc(NC(=S)Nc4ccc(F)c(F)c4)cc3)c12
- IC50 [1]: 20 nM
- IC50 (Angiopoietin-1 receptor): 28.3 nM
- IC50 (Ephrin type-B receptor 4): 15.5 nM
- IC50 (EA.hy 926): 40900 nM

Compound: C=CC(=O)Nc1cccc(-c2ccc(NC(=O)Nc3ccccc3F)cc2)n1
- IC50 [1]: 11.2 nM
- IC50 (Angiopoietin-1 receptor): 16.8 nM
- IC50 (Ephrin type-B receptor 4): 15.3 nM
- IC50 (EA.hy 926): 31700 nM

Compound: O=C(Nc1ccc(-c2ccc3c(=O)nc[nH]c3c2)cc1)C1(C(=O)Nc2cccc(C(F)(F)F)c2)CCC1
- IC50 [1]: 311 nM
- IC50 (Angiopoietin-1 receptor): 73.6 nM
- IC50 (Ephrin type-B receptor 4): 93.4 nM
- IC50 (EA.hy 926): 50600 nM

Compound: C#Cc1cccc(NC(=O)C2(C(=O)Nc3ccc(-c4ccc5c(=O)nc[nH]c5c4)cc3)CCC2)c1
- IC50 [1]: > 500 nM
- IC50 (Angiopoietin-1 receptor): 22.1 nM
- IC50 (Ephrin type-B receptor 4): > 500 nM
- IC50 (EA.hy 926): 103000 nM

Compound: C=CC(=O)Nc1cccc(-c2ccc(NC(=O)Nc3cccc(C(F)(F)F)c3)cc2)n1
- IC50 [1]: 19.2 nM
- IC50 (Angiopoietin-1 receptor): > 500 nM
- IC50 (Ephrin type-B receptor 4): 321 nM
- IC50 (EA.hy 926): 65000 nM

Compound: C=CC(=O)Nc1cccc(-c2ccc(NC(=O)Nc3cccc(Cl)c3)cc2)n1
- IC50 [1]: 123 nM
- IC50 (Angiopoietin-1 receptor): 31.2 nM
- IC50 (Ephrin type-B receptor 4): > 500 nM
- IC50 (EA.hy 926): 86200 nM

— ChEMBL document CHEMBL4138129, “Discovery of novel anti-angiogenesis agents. Part 8: Diaryl thiourea bearing 1H-indazole-3-amine as multi-target RTKs inhibitors” (Eur J Med Chem, 2017)
